Measurements taken from article PMC10376059, “New NADPH Oxidase 2 Inhibitors Display Potent Activity against Oxidative Stress by Targeting p22^phox-p47^phox Interactions” (Antioxidants, 2023).

Assays:
MTT cytotoxicity assay = format: cell-based, human; settings: human; neutrophil-differentiated HL-60 cells, 72 h, 100 µM
Experimental: To verify the cytotoxicity of the acrylonitrile derivatives, the MTT reduction method was performed. Briefly, HL-60 cells were seeded in a flat-bottomed 96-well plate at a density of 10,000 cells per well. […] In a second series of experiments, cells were incubated under the same conditions but for 72 h. Etoposide was used as a positive control. Ten μL of MTT was added at a final concentration of 0.5 mg/mL, incubated at 37 °C for 4 h, and then solubilized with 10% SDS in 0.1 mM HCl and incubated overnight at 37 °C. Finally, a blue-colored compound (formazan) formation was measured at 570 nm in a multiplate reader (StatFax 4200, Awareness Technology, Inc., Palm City, FL, USA). The viability percentage was obtained as follows: Viability % = [treated cells DO × 100]/[DO cells control].

[1] = test system: cardiomyocytes isolated from mdx mice; assay: NOX2-mediated ROS production (DCF-DA, confocal) in mdx cardiomyocytes; format: cell-based, mouse; settings: 1 µM, vs control
Description: Cardiomyocytes were isolated from mdx mice (C57BL/10ScSn-DMDmdx/J, stock number 001801M, Jackson Laboratories, Bar Harbor, […], USA). Male mdx mice of 19 months of age were used, which were housed in individual cages with water and food ad libitum. All the procedures were adjusted to the “Guide for the Care and Use of Laboratory Animals” (1996) of the National Institute of Health and were approved by the Institutional Committee for Animal Care and Use of the Universidad de Talca. Mice were pre-medicated with heparin i.p. (200U.) and then sacrificed by cervical dislocation. The heart was rapidly removed, cannulated through the aorta, and retrogradely perfused in a steady flow (2 mL/min) at 37 °C. The hearts were initially perfused for 10 min with a Ca^2+-free bicarbonate buffer solution containing (in mM) 120 NaCl; 5.4 KCl; 1.2 MgSO4; 1.2 NaH2PO4; 5.6 glucose; 20 NaHCO3; 10 BDM, and 5 taurine, bubbled with a 95% O2–5% CO2 mixture. Enzyme digestion was performed with collagenase type II (1 mg/mL; Worthington Biochemical Corp., Lakewood, NJ, USA) and protease type XIV (0.1 mg/mL; Sigma-Aldrich) as previously reported. Isolated cardiomyocytes were transferred to 1.5 mL Eppendorf tubes and preincubated with the heteroaryl acrylonitrile compounds.
Cardiomyocytes isolated from mdx mice were transferred to Eppendorf tubes to be incubated with 1 μM of the indole heteroaryl-acrylonitrile derivatives for 30 min, protected from light, at room temperature. VAS2870 (20 μM) was used as a positive control for NOX2 inhibition. 2′,7′-dichlorofluorescein diacetate (DCF-DA) (10 μM) was then added and incubated for 15 min. Subsequently, it was allowed to sediment by gravity to remove the supernatant, and the pellets obtained were in a phosphate saline solution (PBS). 200 μL of the cell suspension were placed on pre-treated polylysine slides (Thermo Fischer, USA) and fixed with 2% paraformaldehyde (Sigma-Aldrich®, St. Louis, MO, USA) for 10 min at 4 °C. […] From the acquired images, the fluorescence intensity was quantified at 495 nm, and the data were reported as fluorescence intensity per pixel.

SMILES	viability at 72 h, 100 µM (MTT cytotoxicity assay) [%]	DCF fluorescence intensity, NOX2-derived ROS (in words) [1]
N#C/C(=C\c1cc(-c2ccccc2)on1)C(=O)c1c[nH]c2ccccc12 [Compound C6]	~5	significant decrease in fluorescence intensity
N#C/C(=C\c1ccncc1)C(=O)c1c[nH]c2ccccc12 [Compound C14]		significant decrease in fluorescence intensity
